Test results: BindingDB's records for doi:10.1021/jm001134q (Linkoping University, 2001)

What follows are compounds tested against T1, Dimer of Gag-Pol polyprotein [489-587] (Human immunodeficiency virus 1, UniProt P12497) (assay: Protease Inhibition Assay). Conditions: pH 5; 30 °C.
T1 construct: 489-587
Description: A fluorimetric assay was used to determine the effects of the inhibitors on HIV-1 protease. This assay used an internally quenched fluorescent peptide substrate. The measurements were performed in 96-well plates with a Fluoroscan plate reader. Excitation and emission wavelengths were 355 nm and 500 nm, respectively.

Point of comparison: `O=C(N[C@H]1c2ccccc2C[C@H]1O)[C@H](OCc1cc(F)cc(F)c1)[C@H](O)[C@@H](O)[C@@H](OCc1cc(F)cc(F)c1)C(=O)N[C@H]1c2ccccc2C[C@H]1O` [(2R,3R,4R,5R)-2,5-bis[(3,5-difluorophenyl)methoxy]-3,4-dihydroxy-N,N'-bis[(1S,2R)-2-hydroxy-2,3-dihydro-1H-inden-1-yl]hexanediamide], Ki 5 nM. Against it:
- O=C(N[C@H]1c2ccccc2C[C@H]1O)[C@H](OCc1ccc(F)c(F)c1)[C@H](O)[C@@H](O)[C@@H](OCc1ccc(F)c(F)c1)C(=O)N[C@H]1c2ccccc2C[C@H]1O [N1,N6-Bis-[(2R)-hydroxy-1(S)-indanyl]-(2R,3R,4R,5R)-2.5-bis-(3,4-difluorobenzyloxy)-3,4-dihydroxyhexanediamide] — within 1.5-fold, 3.9 nM
- O=C(N[C@H]1c2ccccc2C[C@H]1O)[C@H](OCc1ccccc1F)[C@H](O)[C@@H](O)[C@@H](OCc1ccccc1F)C(=O)N[C@H]1c2ccccc2C[C@H]1O [(2R,3R,4R,5R)-2,5-bis[(2-fluorophenyl)methoxy]-3,4-dihydroxy-N,N'-bis[(1S,2R)-2-hydroxy-2,3-dihydro-1H-inden-1-yl]hexanediamide] — 1.5-fold lower, 3.26 nM
- O=C(N[C@H]1c2ccccc2C[C@H]1O)[C@H](OCc1ccccc1)[C@H](O)[C@@H](O)[C@@H](OCc1ccccc1)C(=O)N[C@H]1c2ccccc2C[C@H]1O [symmetric/asymmetric inhibitor 2] — 4.1-fold lower, 1.22 nM
- O=C(N[C@H]1c2ccccc2C[C@H]1O)[C@H](OCc1cc(F)ccc1F)[C@H](O)[C@@H](O)[C@@H](OCc1cc(F)ccc1F)C(=O)N[C@H]1c2ccccc2C[C@H]1O [(2R,3R,4R,5R)-2,5-bis[(2,5-difluorophenyl)methoxy]-3,4-dihydroxy-N,N'-bis[(1S,2R)-2-hydroxy-2,3-dihydro-1H-inden-1-yl]hexanediamide] — 1.5-fold lower, 3.29 nM
- O=C(N[C@H]1c2ccccc2C[C@H]1O)[C@H](OCc1ccc(F)cc1)[C@H](O)[C@@H](O)[C@@H](OCc1ccc(F)cc1)C(=O)N[C@H]1c2ccccc2C[C@H]1O [(2R,3R,4R,5R)-2,5-bis[(4-fluorophenyl)methoxy]-3,4-dihydroxy-N,N'-bis[(1S,2R)-2-hydroxy-2,3-dihydro-1H-inden-1-yl]hexanediamide] — within 1.5-fold, 5.39 nM
- O=C(N[C@H]1c2ccccc2C[C@H]1O)[C@H](OCc1c(F)cccc1F)[C@H](O)[C@@H](O)[C@@H](OCc1c(F)cccc1F)C(=O)N[C@H]1c2ccccc2C[C@H]1O [N1,N6-Bis-[(2R)-hydroxy-1(S)-indanyl]-(2R,3R,4R,5R)-2.5-bis-(2,6-difluorobenzyloxy)-3,4-dihydroxyhexanediamide] — 3-fold lower, 1.64 nM
- O=C(N[C@H]1c2ccccc2C[C@H]1O)[C@H](OCc1cccc(F)c1F)[C@H](O)[C@@H](O)[C@@H](OCc1cccc(F)c1F)C(=O)N[C@H]1c2ccccc2C[C@H]1O [N1,N6-Bis-[(2R)-hydroxy-1(S)-indanyl]-(2R,3R,4R,5R)-2.5-bis-(2,3-difluorobenzyloxy)-3,4-dihydroxyhexanediamide] — within 1.5-fold, 4 nM
- O=C(N[C@H]1c2ccccc2C[C@H]1O)[C@H](OCc1ccc(F)cc1F)[C@H](O)[C@@H](O)[C@@H](OCc1ccc(F)cc1F)C(=O)N[C@H]1c2ccccc2C[C@H]1O [N1,N6-Bis-[(2R)-hydroxy-1(S)-indanyl]-(2R,3R,4R,5R)-2.5-bis-(2,4-difluorobenzyloxy)-3,4-dihydroxyhexanediamide] — 3-fold lower, 1.65 nM
- O=C(N[C@H]1c2ccccc2C[C@H]1O)[C@H](OCc1cccc(F)c1)[C@H](O)[C@@H](O)[C@@H](OCc1cccc(F)c1)C(=O)N[C@H]1c2ccccc2C[C@H]1O [(2R,3R,4R,5R)-2,5-bis[(3-fluorophenyl)methoxy]-3,4-dihydroxy-N,N'-bis[(1S,2R)-2-hydroxy-2,3-dihydro-1H-inden-1-yl]hexanediamide] — within 1.5-fold, 7.13 nM
